How the values were obtained:
[1] = test system: Karpas cells; assay: Glo assay of Karpas cells (Table 3; ProteasomeGlo plating scheme); format: cell-based; conditions: read-out: Pglo Karpas
Summary of the method: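 Luminescent read-out of cellular chymotrypsin-like proteasome activity: cells exposed to compound 105 min at 37° C., 5% CO2, then given Suc-LLVY-Glo reagent, shaken 2-5 min and kept dark 10-15 min before reading. Values are IC50 [nM].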

[2] = test system: B-cells isolated from PBMC's; assay: Chymotrypsin-like ProteasomeGlo assay in B-cells isolated from PBMCs; format: cell-based, human; conditions: Homo sapiens; B-cells isolated from PBMC's; read-out: Pglo B-Cell
Summary of the method: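 Human B-cells were negatively isolated from buffy-coat PBMCs by density gradient, RBC lysis and Miltenyi magnetic separation. Cells were plated and compounds added by acoustic transfer after 1:100 dilution, with DMSO controls and medium-only wells. Chymotrypsin-like proteasome activity was read by luminescent ProteasomeGlo to derive IC50.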

[3] = test system: B cell; assay: B cell diff. (Table 4, method not given); format: cell-based; conditions: B-cell
[4] = test system: PBMC; assay: PBMC IL 17 stim. (Table 4, method not given); format: cell-based

SMILES	IC50 [1] [nM]	IC50 [2] [nM]	IC50 [3] [nM]	IC50 [4] [nM]
Cc1ccc2cc1CNC(=O)[C@H](CCc1ccccc1)NC(=O)[C@@H](N)CC(=O)N1CCCC(CCO2)C1 (stereo partly drawn) [Compound 8, (9S,12S)-12-amino-5^4-methyl-9-phenethyl-4-oxa-7,10-diaza-1(3,1)-piperidina-5(1,3)-benzenacyclotetradecaphane-8,11,14-trione]	< 100	< 100	–	–
Cc1ccc2cc1CNC(=O)[C@H](CCc1ccccc1)NC(=O)CCC(=O)N1CCCC(CCO2)C1 (stereo partly drawn) [Compound 13, (9S)-5^4-methyl-9-phenethyl-4-oxa-7,10-diaza-1(3,1)-piperidina-5(1,3)-benzenacyclotetradecaphane-8,11,14-trione]	–	< 100	100 to 500	–
Cc1ccc2cc1CNC(=O)[C@H](CCc1ccccc1)NC(=O)CCCCC(=O)N1CCCC(CCO2)C1 (stereo partly drawn) [Compound 16, (9S)-5^4-methyl-9-phenethyl-4-oxa-7,10-diaza-1(3,1)-piperidina-5(1,3)-benzenacyclohexadecaphane-8,11,16-trione]	–	< 100	< 100	< 100
Cc1ccc2cc1CNC(=O)[C@H](CCc1ccccc1)NC(=O)[C@@H](Nc1ccccn1)CC(=O)N1CCCC(CCO2)C1 (stereo partly drawn) [Compound 36, (9S,12S)-5^4-methyl-9-phenethyl-12-(pyridin-2-ylamino)-4-oxa-7,10-diaza-1(3,1)-piperidina-5(1,3)-benzenacyclotetradecaphane-8,11,14-trione]	–	100 to 500	< 100	–
Cc1ccc2cc1CNC(=O)[C@H](CCc1ccccc1)NC(=O)[C@@H](NS(C)(=O)=O)CC(=O)N1CCCC(CCO2)C1 (stereo partly drawn) [Compound 37, N-((9S,12S)-5^4-methyl-8,11,14-trioxo-9-phenethyl-4-oxa-7,10-diaza-1(3,1)-piperidina-5(1,3)-benzenacyclotetradecaphane-12-yl)methanesulfonamide]	–	< 100	< 100	–
Cc1ccc2cc1CNC(=O)[C@H](CCc1ccccc1)NC(=O)[C@@H](NC(=O)c1ccncc1)CC(=O)N1CCCC(CCO2)C1 (stereo partly drawn) [Compound 42, N-((9S,12S)-5^4-methyl-8,11,14-trioxo-9-phenethyl-4-oxa-7,10-diaza-1(3,1)-piperidina-5(1,3)-benzenacyclotetradecaphane-12-yl)isonicotinamide]	–	< 100	< 100	–
Cc1ccc2cc1CNC(=O)[C@H](CCc1ccccc1)NC(=O)[C@@H](N1C(=O)CCC1=O)CC(=O)N1CCCC(CCO2)C1 (stereo partly drawn) [Compound 43, (9S,12S)-12-(2,5-dioxopyrrolidin-1-yl)-5^4-methyl-9-phenethyl-4-oxa-7,10-diaza-1(3,1)-piperidina-5(1,3)-benzenacyclotetradecaphane-8,11,14-trione]	–	< 100	< 100	–
Cc1ccc2cc1CNC(=O)[C@H](CCc1ccccc1)NC(=O)[C@@H](Nc1nc3ccccc3[nH]1)CC(=O)N1CCCC(CCO2)C1 (stereo partly drawn) [Compound 45, (9S,12S)-12-((1H-benzo[d]imidazol-2-yl)amino)-5^4-methyl-9-phenethyl-4-oxa-7,10-diaza-1(3,1)-piperidina-5(1,3)-benzenacyclotetradecaphane-8,11,14-trione]	–	100 to 500	< 100	–
Cc1ccc2cc1CNC(=O)[C@H](CCc1ccccc1)NC(=O)[C@@H](NC(=O)c1n[nH]c3ccccc13)CC(=O)N1CCCC(CCO2)C1 (stereo partly drawn) [Compound 60, N-((9S,12S)-5^4-methyl-8,11,14-trioxo-9-phenethyl-4-oxa-7,10-diaza-1(3,1)-piperidina-5(1,3)-benzenacyclotetradecaphane-12-yl)-1H-indazole-3-carboxamide]	100 to 500	100 to 500	–	–
COc1ccc(CC(=O)N[C@H]2CC(=O)N3CCCC(CCOc4ccc(C)c(c4)CNC(=O)[C@H](CCc4ccccc4)NC2=O)C3)cc1OC (stereo partly drawn) [Compound 63, 2-(3,4-dimethoxyphenyl)-N-((9S,12S)-5^4-methyl-8,11,14-trioxo-9-phenethyl-4-oxa-7,10-diaza-1(3,1)-piperidina-5(1,3)-benzenacyclotetradecaphane-12-yl)acetamide]	< 100	< 100	–	< 100
Cc1ccc2cc1CNC(=O)[C@H](Cc1c[nH]c3ccccc13)NC(=O)CCC(=O)N1CCCC(CCO2)C1 (stereo partly drawn) [Compound 77, (9S)-9-((1H-indol-3-yl)methyl)-5^4-methyl-4-oxa-7,10-diaza-1(3,1)-piperidina-5(1,3)-benzenacyclotetradecaphane-8,11,14-trione]	100 to 500	100 to 500	–	–
Cc1ccc2cc1CNC(=O)[C@H](C)NC(=O)CCC(=O)N1CCCC(CCO2)C1 (stereo partly drawn) [Compound 78, (9S)-5^4,9-dimethyl-4-oxa-7,10-diaza-1(3,1)-piperidina-5(1,3)-benzenacyclotetradecaphane-8,11,14-trione]	100 to 500	100 to 500	–	–
Cc1ccc2cc1CNC(=O)[C@H](Cc1ccccc1)NC(=O)CCC(=O)N1CCCC(CCO2)C1 (stereo partly drawn) [Compound 79, (9S)-9-benzyl-5^4-methyl-4-oxa-7,10-diaza-1(3,1)-piperidina-5(1,3)-benzenacyclotetradecaphane-8,11,14-trione]	500 to 1000	500 to 1000	–	–
Cc1ccc2cc1CNC(=O)[C@H](CCc1ccccc1)NC(=O)[C@@H](NC(=O)[C@H](C)c1ccccc1)CC(=O)N1CCCC(CCO2)C1 (stereo partly drawn) [Compound 80, (2R)-N-((9S,12S)-5^4-methyl-8,11,14-trioxo-9-phenethyl-4-oxa-7,10-diaza-1(3,1)-piperidina-5(1,3)-benzenacyclotetradecaphane-12-yl)-2-phenylpropanamide]	< 100	< 100	–	–
Cc1ccc2cc1CNC(=O)[C@H](CCc1ccccc1)NC(=O)[C@@H](NC(=O)[C@@H](C)c1ccccc1)CC(=O)N1CCCC(CCO2)C1 (stereo partly drawn) [Compound 81, (2S)-N-((9S,12S)-5^4-methyl-8,11,14-trioxo-9-phenethyl-4-oxa-7,10-diaza-1(3,1)-piperidina-5(1,3)-benzenacyclotetradecaphane-12-yl)-2-phenylpropanamide]	< 100	< 100	–	–
Cc1ccc2cc1CNC(=O)[C@H](CCc1ccccc1)NC(=O)[C@@H](NC(=O)C1CCCc3ccccc31)CC(=O)N1CCCC(CCO2)C1 (stereo partly drawn) [Compound 82, N-((9S,12S)-5^4-methyl-8,11,14-trioxo-9-phenethyl-4-oxa-7,10-diaza-1(3,1)-piperidina-5(1,3)-benzenacyclotetradecaphane-12-yl)-1,2,3,4-tetrahydronaphthalene-1-carboxamide]	< 100	< 100	–	–
COc1ccc(CC(=O)N[C@H]2CC(=O)N3CCCC(CCOc4ccc(C)c(c4)CNC(=O)[C@H](CCc4ccccc4)NC2=O)C3)cc1 (stereo partly drawn) [Compound 83, 2-(4-methoxyphenyl)-N-((9S,12S)-5^4-methyl-8,11,14-trioxo-9-phenethyl-4-oxa-7,10-diaza-1(3,1)-piperidina-5(1,3)-benzenacyclotetradecaphane-12-yl)acetamide]	< 100	< 100	–	–
Cc1ccc2cc1CNC(=O)[C@H](CCc1ccccc1)NC(=O)[C@@H](NC(=O)CN1CCOCC1)CC(=O)N1CCCC(CCO2)C1 (stereo partly drawn) [Compound 88, N-((9S,12S)-5^4-methyl-8,11,14-trioxo-9-phenethyl-4-oxa-7,10-diaza-1(3,1)-piperidina-5(1,3)-benzenacyclotetradecaphane-12-yl)-2-morpholinoacetamide]	< 100	< 100	–	–
